Legend:
Settings in all cases: banded MIC grade
Aspergillus fumigatus = assay: Minimum inhibitory concentration, YAG medium; assay type: cell-based
Summary of the method: (§1)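 Broth microdilution in YAG medium (1% glucose, 1% ammonium chloride, 0.5% yeast extract) with spore inocula of 1-2×10^4 cfu/mL and doubling dilutions typically spanning 50-0.05 mg/L. Plates were incubated 24 hrs at 35° C and read by OD 485 nm. MIC is the lowest concentration giving >70% growth inhibition versus drug-free control, in mg/L.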

A. fumigatus 210 = assay: Minimum inhibitory concentration, YAG medium; assay type: cell-based, Aspergillus fumigatus
Summary of the method: as §1

A. terreus 49 = assay: Minimum inhibitory concentration, YAG medium; assay type: cell-based, Aspergillus terreus
Summary of the method: (§2)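 MIC values (mg/L) were derived from well optical density at 485 nm. Plates with Aspergillus spores and doubling aqueous dilutions of compound (5 mg/mL DMSO stock) had been incubated at 35° C for 24 hrs.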

Aspergillus flavus = assay: Minimum inhibitory concentration, YAG medium; assay type: cell-based
Summary of the method: as §2

Aspergillus niger = assay: Minimum inhibitory concentration, YAG medium; assay type: cell-based
Summary of the method: as §2

Aspergillus terreus = assay: Minimum inhibitory concentration, YAG medium; assay type: cell-based
Summary of the method: as §2

C. albicans = assay: Minimum inhibitory concentration, RPMI medium; assay type: cell-based
Summary of the method: (§3)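 Thawed 5 mg/mL DMSO stocks are vortexed, diluted into sterile water and serially halved in water. The MIC test is then run in RPMI 1640 at 35° C for 24-48 hrs. Wells are read at OD 485 nm.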

C. parapsilosis = assay: Minimum inhibitory concentration, RPMI medium; assay type: cell-based
Summary of the method: as §3

C. tropicalis = assay: Minimum inhibitory concentration, RPMI medium; assay type: cell-based
Summary of the method: as §3

SMILES: COc1cccc(C2=NN=C(N)SC2)c1
- MIC grade, A. FUMIGATUS, YAG media (Aspergillus fumigatus): 1 (1: ≥5 mg/L)
- MIC grade, A. FUMIGATUS 210, YAG media (A. fumigatus 210): 1 (1: ≥5 mg/L)
- MIC grade, A. TERREUS 49, YAG media (A. terreus 49): 1 (1: ≥5 mg/L)
- MIC grade, A. FLAVUS, YAG media (Aspergillus flavus): 1 (1: ≥5 mg/L)
- MIC grade, A. NIGER, YAG media (Aspergillus niger): 1 (1: ≥5 mg/L)
- MIC grade, A. TERREUS, YAG media (Aspergillus terreus): 1 (1: ≥5 mg/L)
- MIC grade, C. ALBICANS, RPMI media (C. albicans): 1 (1: ≥20 mg/L)
- MIC grade, C. PARAPSILOSIS, RPMI media (C. parapsilosis): 1 (1: ≥20 mg/L)
- MIC grade, C. TROPICALIS, RPMI media (C. tropicalis): 1 (1: ≥20 mg/L)

SMILES: NC1=NN=C(c2ccc(Cl)cc2)CS1
- MIC grade, A. FUMIGATUS, YAG media (Aspergillus fumigatus): 3 (3: 0.2-1 mg/L)
- MIC grade, A. FUMIGATUS 210, YAG media (A. fumigatus 210): 2 (2: 1-5 mg/L)
- MIC grade, A. TERREUS 49, YAG media (A. terreus 49): 3 (3: 0.2-1 mg/L)
- MIC grade, A. FLAVUS, YAG media (Aspergillus flavus): 3 (3: 0.2-1 mg/L)
- MIC grade, A. NIGER, YAG media (Aspergillus niger): 2 (2: 1-5 mg/L)
- MIC grade, A. TERREUS, YAG media (Aspergillus terreus): 3 (3: 0.2-1 mg/L)
- MIC grade, C. ALBICANS, RPMI media (C. albicans): 1 (1: ≥20 mg/L)
- MIC grade, C. PARAPSILOSIS, RPMI media (C. parapsilosis): 1 (1: ≥20 mg/L)
- MIC grade, C. TROPICALIS, RPMI media (C. tropicalis): 1 (1: ≥20 mg/L)

SMILES: COc1ccc(C2=NN=C(N)SC2)cc1
- MIC grade, A. FUMIGATUS, YAG media (Aspergillus fumigatus): 2 (2: 1-5 mg/L)
- MIC grade, A. FUMIGATUS 210, YAG media (A. fumigatus 210): 2 (2: 1-5 mg/L)
- MIC grade, A. TERREUS 49, YAG media (A. terreus 49): 3 (3: 0.2-1 mg/L)
- MIC grade, A. FLAVUS, YAG media (Aspergillus flavus): 2 (2: 1-5 mg/L)
- MIC grade, A. NIGER, YAG media (Aspergillus niger): 2 (2: 1-5 mg/L)
- MIC grade, A. TERREUS, YAG media (Aspergillus terreus): 3 (3: 0.2-1 mg/L)
- MIC grade, C. ALBICANS, RPMI media (C. albicans): 1 (1: ≥20 mg/L)
- MIC grade, C. PARAPSILOSIS, RPMI media (C. parapsilosis): 1 (1: ≥20 mg/L)
- MIC grade, C. TROPICALIS, RPMI media (C. tropicalis): 1 (1: ≥20 mg/L)

SMILES: Cc1cccc(C2=NN=C(N)SC2)c1
- MIC grade, A. FUMIGATUS, YAG media (Aspergillus fumigatus): 1 (1: ≥5 mg/L)
- MIC grade, A. FUMIGATUS 210, YAG media (A. fumigatus 210): 1 (1: ≥5 mg/L)
- MIC grade, A. TERREUS 49, YAG media (A. terreus 49): 2 (2: 1-5 mg/L)
- MIC grade, A. FLAVUS, YAG media (Aspergillus flavus): 1 (1: ≥5 mg/L)
- MIC grade, A. NIGER, YAG media (Aspergillus niger): 2 (2: 1-5 mg/L)
- MIC grade, A. TERREUS, YAG media (Aspergillus terreus): 2 (2: 1-5 mg/L)
- MIC grade, C. ALBICANS, RPMI media (C. albicans): 1 (1: ≥20 mg/L)
- MIC grade, C. PARAPSILOSIS, RPMI media (C. parapsilosis): 1 (1: ≥20 mg/L)
- MIC grade, C. TROPICALIS, RPMI media (C. tropicalis): 1 (1: ≥20 mg/L)

SMILES: Cc1ccc(C2=NN=C(N)SC2)cc1
- MIC grade, A. FUMIGATUS, YAG media (Aspergillus fumigatus): 3 (3: 0.2-1 mg/L)
- MIC grade, A. FUMIGATUS 210, YAG media (A. fumigatus 210): 3 (3: 0.2-1 mg/L)
- MIC grade, A. TERREUS 49, YAG media (A. terreus 49): 3 (3: 0.2-1 mg/L)
- MIC grade, A. FLAVUS, YAG media (Aspergillus flavus): 3 (3: 0.2-1 mg/L)
- MIC grade, A. NIGER, YAG media (Aspergillus niger): 3 (3: 0.2-1 mg/L)
- MIC grade, A. TERREUS, YAG media (Aspergillus terreus): 2 (2: 1-5 mg/L)
- MIC grade, C. ALBICANS, RPMI media (C. albicans): 1 (1: ≥20 mg/L)
- MIC grade, C. PARAPSILOSIS, RPMI media (C. parapsilosis): 2 (2: 5-20 mg/L)
- MIC grade, C. TROPICALIS, RPMI media (C. tropicalis): 1 (1: ≥20 mg/L)

SMILES: CCC(=O)OCC1=NN=C(N)SC1
- MIC grade, A. FUMIGATUS, YAG media (Aspergillus fumigatus): 3 (3: 0.2-1 mg/L)
- MIC grade, A. FUMIGATUS 210, YAG media (A. fumigatus 210): 3 (3: 0.2-1 mg/L)
- MIC grade, A. TERREUS 49, YAG media (A. terreus 49): 3 (3: 0.2-1 mg/L)
- MIC grade, A. FLAVUS, YAG media (Aspergillus flavus): 3 (3: 0.2-1 mg/L)
- MIC grade, A. NIGER, YAG media (Aspergillus niger): 3 (3: 0.2-1 mg/L)
- MIC grade, A. TERREUS, YAG media (Aspergillus terreus): 3 (3: 0.2-1 mg/L)
- MIC grade, C. ALBICANS, RPMI media (C. albicans): 1 (1: ≥20 mg/L)
- MIC grade, C. PARAPSILOSIS, RPMI media (C. parapsilosis): 3 (3: 1-5 mg/L)
- MIC grade, C. TROPICALIS, RPMI media (C. tropicalis): 2 (2: 5-20 mg/L)

SMILES: NC1=NN=C(CC(=O)OCc2ccccc2)CS1
- MIC grade, A. FUMIGATUS, YAG media (Aspergillus fumigatus): 1 (1: ≥5 mg/L)
- MIC grade, A. FUMIGATUS 210, YAG media (A. fumigatus 210): 1 (1: ≥5 mg/L)
- MIC grade, A. TERREUS 49, YAG media (A. terreus 49): 2 (2: 1-5 mg/L)
- MIC grade, A. FLAVUS, YAG media (Aspergillus flavus): 1 (1: ≥5 mg/L)
- MIC grade, A. NIGER, YAG media (Aspergillus niger): 2 (2: 1-5 mg/L)
- MIC grade, A. TERREUS, YAG media (Aspergillus terreus): 2 (2: 1-5 mg/L)
- MIC grade, C. ALBICANS, RPMI media (C. albicans): 1 (1: ≥20 mg/L)
- MIC grade, C. PARAPSILOSIS, RPMI media (C. parapsilosis): 2 (2: 5-20 mg/L)
- MIC grade, C. TROPICALIS, RPMI media (C. tropicalis): 1 (1: ≥20 mg/L)

SMILES: COC(=O)CC1=NN=C(N)SC1
- MIC grade, A. FUMIGATUS, YAG media (Aspergillus fumigatus): 2 (2: 1-5 mg/L)
- MIC grade, A. FUMIGATUS 210, YAG media (A. fumigatus 210): 2 (2: 1-5 mg/L)
- MIC grade, A. TERREUS 49, YAG media (A. terreus 49): 2 (2: 1-5 mg/L)
- MIC grade, A. FLAVUS, YAG media (Aspergillus flavus): 2 (2: 1-5 mg/L)
- MIC grade, A. NIGER, YAG media (Aspergillus niger): 2 (2: 1-5 mg/L)
- MIC grade, A. TERREUS, YAG media (Aspergillus terreus): 2 (2: 1-5 mg/L)
- MIC grade, C. ALBICANS, RPMI media (C. albicans): 1 (1: ≥20 mg/L)
- MIC grade, C. PARAPSILOSIS, RPMI media (C. parapsilosis): 2 (2: 5-20 mg/L)
- MIC grade, C. TROPICALIS, RPMI media (C. tropicalis): 1 (1: ≥20 mg/L)
